According to patent US11371077B2, “High throughput cell-based screening for aptamers” (MeiraGTx UK II Limited, priority 2016, dated 2022):
Where a name gives a salt, the structure may show the parent alone. Read-outs that look alike come from different tables or passages of the source. Where a SMILES comes first, the peptide text is derived from it. [ ]: non-standard residue; d: D form. The star is where a group is joined. Sta = CC(C)C[C@H](N)[C@@H](O)CC(=O)O; Isovaleryl = CC(C)CC(=O)*

Experiments:
Assay type in all cases: cell-based
[1] = tested on: ydhl-A6 riboswitch; assay: Luciferase reporter assay, ydhl-A6 riboswitch, transfected HEK 293 cells; settings: for fold induction at 100 µM: Homo sapiens
From the text: (§1) A truncated human beta-globin intron sequence was synthesized and inserted in the coding sequence of a firefly luciferase gene. A mutant human DHFR exon 2 was synthesized and inserted in the middle of this truncated beta-globin intron sequence using Golden gate cloning strategy. Aptamers including xpt-G/A^1, ydhl-G/A^2, yxj^3, add^4, gdg6-G/A^5 (citations for the aptamers are incorporated herein by reference) were synthesized as oligonucleotides (“oligos”) with 4 nucleotide overhang at the 5′ end that are complementary to two different BsaI sites individually (IDT), annealed and ligated to BsaI-digested mDHFR-Luci-acceptor vector.
(§2) 3.5×10^4 HEK 293 cells were plated in a 96-well flat bottom plate the day before transfection. Plasmid DNA (500 ng) was added to a tube or a 96-well U-bottom plate. […] Then, 50 μL of this diluted transfection reagent was added to the DNA, mixed, and incubated at RT for 20 min. Finally, 7 μL of this solution was added to a well of cells in the 96-well plate.
(§3) 24 hours after media change, plates were removed from the incubator, and equilibrated to RT for several minutes on a lab bench, then aspirated. Glo-lysis buffer (Promega, 100 μL, RT) was added, and the plates maintained at RT for at least 5 minutes. Then, the well contents were mixed by 50 μL trituration, and 20 μL of each sample was mixed with 20 μL of bright-glo reagent (Promega) that had been diluted to 10% in glo-lysis buffer. 96 wells were spaced on an opaque white 384-well plate. Following a 5 min incubation at RT, luminescence was measured using a Tecan machine with 500 mSec read time. The luciferase activity was expressed as mean relative light unit (RLU)±S.D., and fold induction was calculated as the luciferase activity obtained with guanine treatment divided by luciferase activity obtained without guanine treatment.

[2] = tested on: xpt-G17 riboswitch; assay: Luciferase reporter assay, xpt-G17 riboswitch, transfected HEK 293 cells; settings: Prestwick library compounds at 100 μM, HEK 293, preliminary screen; for fold induction at 100 µM: Homo sapiens, HEK293, xpt-G17 riboswitch
From the text: as §1
(§4) 3.5×10^4 HEK 293 cells were plated in a 96-well flat bottom plate the day before transfection. Plasmid DNA (500 ng) was added to a tube or a 96-well U-bottom plate. Separately, TransIT-293 reagent (Mirus; 1.4 μL) was added to 50 μL Opti-mem I media (Life Technologies), and allowed to sit for 5 minutes at room temperature (RT). Then, 50 μL of this diluted transfection reagent was added to the DNA, mixed, and incubated at RT for 20 min. Finally, 7 μL of this solution was added to a well of cells in the 96-well plate.
as §3

[3] = tested on: xpt-A8 riboswitch; assay: cells; settings: Homo sapiens, HEK293; xpt-A8 riboswitch; Prestwick library compounds at 100 μM; HEK 293; read-out: Fold Induction of luciferase activity
From the text: (§5) Riboswitches were constructed as described in PCT/US2016/016234 (in particular Examples 3 to 6), incorporated herein by reference. A truncated human beta-globin intron sequence was synthesized and inserted in the coding sequence of a firefly luciferase gene. A mutant human DHFR exon 2 was synthesized and inserted in the middle of this truncated beta-globin intron sequence using Golden gate cloning strategy. Aptamers including xpt-G/A^1, ydhl-G/A^2, yxj^3, add^4, gdg6-G/A^5 (citations for the aptamers are incorporated herein by reference) were synthesized as oligonucleotides (“oligos”) with 4 nucleotide overhang at the 5′ end that are complementary to two different BsaI sites individually (IDT), annealed and ligated to BsaI-digested mDHFR-Luci-acceptor vector.
as §4, §3

[4] = tested on: add-A6 riboswitch; assay: cells; settings: add-A6 riboswitch, Prestwick library compounds at 100 μM, HEK 293; for fold induction at 100 µM: Homo sapiens, HEK293, read-out: Fold Induction of luciferase activity
From the text: as §5, §4, §3

[5] = tested on: add-G6 riboswitch; assay: cells; settings: add-G6 riboswitch, Prestwick library compounds at 100 μM, HEK 293; for fold induction at 100 µM: Homo sapiens, HEK293, read-out: Fold Induction of luciferase activity
From the text: as §1, §2
as §3, with “The luciferase activity was expressed as mean relative light unit (RLU)±S.D., and fold induction was calculated as the luciferase activity obtained with guanine treatment divided by luciferase activity obtained without guanine treatment.” left out

[6] = tested on: yxj-A6 riboswitch; assay: cells; settings: yxj-A6 riboswitch, Prestwick library compounds at 100 μM, HEK 293; for fold induction at 100 µM: Homo sapiens, HEK293, read-out: Fold Induction of luciferase activity
From the text: as §1, §4
as §3, with “The luciferase activity was expressed as mean relative light unit (RLU)±S.D., and fold induction was calculated as the luciferase activity obtained with guanine treatment divided by luciferase activity obtained without guanine treatment.” left out

[7] = tested on: gdg6-G8 riboswitch; assay: Luciferase reporter assay, gdg6-G8 riboswitch, transfected HEK 293 cells; settings: for fold induction at 100 µM: Homo sapiens, HEK293, gdg6-G8 riboswitch, Prestwick library compounds at 100 μM, HEK 293
From the text: as §5, §4, §3

[8] = tested on: gdg6-A8 riboswitch; assay: Luciferase reporter assay, gdg6-A8 riboswitch, transfected HEK 293 cells; settings: for fold induction at 100 µM: Homo sapiens, HEK293, gdg6-A8 riboswitch, Prestwick library compounds at 100 μM, HEK 293
From the text: as §5, §4, §3

[9] = tested on: ydhl-G8 riboswitch; assay: Luciferase reporter assay, ydhl-G8 riboswitch, transfected HEK 293 cells
From the text: as §1, §2, §3

[10] = HEK293, read-out: Fold Induction of luciferase activity, ydhl-A6 riboswitch, Prestwick library compounds at 100 μM, HEK 293
[11] = ydhl-A6 riboswitch, Prestwick library compounds at 100 μM, HEK 293
[12] = HEK293, read-out: Fold Induction of luciferase activity

`Clc1ccccc1CN1CCc2sccc2C1` [Ticlopidine hydrochloride] gave a fold induction at 100 µM ([1]; HEK293, ydhl-A6 riboswitch, Prestwick library compounds at 100 μM, HEK 293, read-out: Fold Induction of luciferase activity) of 3.1.
With `Cn1cnc([N+](=O)[O-])c1Sc1ncnc2nc[nH]c12` [Azathioprine] the fold induction at 100 µM [2] was 6.2, the fold induction at 100 µM [3] was 5.9 and the fold induction at 100 µM [4] was 6.5. It also gave a fold induction at 100 µM [5] of 11.4, a fold induction at 100 µM [6] of 6.6 and a fold induction at 100 µM [7] of 16.2. The fold induction at 100 µM [8] was 19.9.
With `C[C@]12CC[C@H](O)C[C@H]1CC[C@@H]1[C@@H]2C[C@@H](O)[C@]2(C)[C@@H](C3=CC(=O)OC3)CC[C@]12O` [Digoxigenin] the fold induction at 100 µM [1, 10] was 4.5 and the “Fold Induction of luciferase activity” value ([1]; ydhl-A6 riboswitch, Prestwick library compounds at 100 μM, HEK 293, 100 µM) was 3.3 fold.
With `CC(C)CC(=O)N[C@H](C(=O)N[C@H](C(=O)N[C@@H](CC(C)C)[C@@H](O)CC(=O)N[C@@H](C)C(=O)N[C@@H](CC(C)C)[C@@H](O)CC(=O)O)C(C)C)C(C)C` [Pepstatin A] (Isovaleryl-VV[Sta]A[Sta]-OH) the “Fold Induction of luciferase activity” value [1, 11] was 4.0 fold.
`CC[C@]12CCCN3CCc4c(n(c5ccccc45)[C@@](O)(C(=O)OC)C1)[C@@H]32` [Vincamine] was tested, and the fold induction at 100 µM [1, 12] was 3.3.
Compound `S=c1nc[nH]c2nc[nH]c12` [Mercaptopurine] has a fold induction at 100 µM [3] of 3.4, a fold induction at 100 µM [4] of 15 and a fold induction at 100 µM [5] of 14.3. The fold induction at 100 µM ([9]; Homo sapiens, HEK293, read-out: Fold Induction of luciferase activity) was 3.6, the fold induction at 100 µM [6] was 10 and the fold induction at 100 µM [7] was 16.2. For the same compound, the fold induction at 100 µM [8] was 17.2.
For `CC(=O)c1ccc2c(c1)N(CCCN(C)C)c1ccccc1S2.O=C(O)/C=C\C(=O)O` [Acetopromazine maleate salt], the “Fold Induction of luciferase activity” value ([2]; xpt-G17 riboswitch) was 4.5 fold, the “Fold Induction of luciferase activity” value [4] was 3.5 fold and the “Fold Induction of luciferase activity” value [5] was 5.0 fold. The “Fold Induction of luciferase activity” value ([9]; ydhl-G8 riboswitch, Prestwick library compounds at 100 μM, HEK 293) was 3.9 fold, the “Fold Induction of luciferase activity” value [6] was 3.1 fold and the “Fold Induction of luciferase activity” value ([7]; 100 µM) was 3.2 fold. For the same compound, the “Fold Induction of luciferase activity” value ([8]; 100 µM) was 8.6 fold.
For `CCN1CCCC(OC(=O)C(c2ccccc2)c2ccccc2)C1` (centres unmarked) [Piperidolate hydrochloride], the fold induction at 100 µM [1, 12] was 3.4.
With `COc1cc2nc(N3CCN(C(=O)C4CCCO4)CC3)nc(N)c2cc1OC` (centres unmarked) [Terazosin hydrochloride] the fold induction at 100 µM [4] was 3.5.
In the case of Alverine citrate salt, the “Fold Induction of luciferase activity” value [1, 11] was 4.2 fold.
In the case of `NC(=O)C[S+]([O-])C(c1ccccc1)c1ccccc1` (centres unmarked) [Modafinil], the fold induction at 100 µM [1, 10] was 3.8.
With `O=C(O)CCc1nc(-c2ccccc2)c(-c2ccccc2)o1` [Oxaprozin] the fold induction at 100 µM [1, 10] was 3.4.
`CC(CN1c2ccccc2Sc2ccccc21)N(C)C` (centres unmarked) [Promethazine hydrochloride] showed a fold induction at 100 µM [2] of 5.3, a fold induction at 100 µM [3] of 5.4 and a fold induction at 100 µM [4] of 4.5. The fold induction at 100 µM [5] was 6.7, the fold induction at 100 µM [6] was 7.9 and the fold induction at 100 µM [7] was 6.5. The fold induction at 100 µM [8] was 4.8.
